Source: patent publication US9464064B2, “HCV helicase inhibitors and methods of use thereof” (University of Kansas, priority 2011, dated 2016)
Several values for one entry are separate records, joined by “and”; a condition that tells them apart may be missing. Equal values may be shown once. Read-outs that look alike come from different tables or passages of the source.

Legend:
Huh-7.5 cells = assay: Cell viability assay ([…]-GLO); type: cell-based, human
Summary of the method: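 Huh-7.5 cells exposed to compound for 72 hours, washed, then lysed in a 1:1 mix of growth medium and […]-GLO reagent. After 30 minutes at 23° C., luminescence was read for 1 second as a measure of viability.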

MBHA DNA substrate = assay: Modified FID assay, SYBR Green I; type: binding; settings: for FID (SG) % Displaced @ 100 μM / EC50: SYBR Green; for EC50: read-out: FID (SG) EC50 (converted)
Summary of the method: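 Fluorescent intercalator displacement with SYBR Green I (0.68 μM) in place of ethidium bromide and MBHA DNA at 0.32 μM. Normalized data fit to concentration-response equation; EC50 given as mean ± SD of three independent triplicate titrations.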

[1] = target: T1, HCV NS3 helicase NS3h_1b(con1) (Hepatitis C virus genotype 1b, UniProt Q9WMX2); assay: biochemical; type: biochemical, hepatitis C virus genotype 1b(con1)
T1 construct: truncated C-terminally His-tagged NS3 proteins lacking the N-terminal protease, called NS3h; His-tag (C); made in house
T1 sequence (Q9WMX2 1192-1657): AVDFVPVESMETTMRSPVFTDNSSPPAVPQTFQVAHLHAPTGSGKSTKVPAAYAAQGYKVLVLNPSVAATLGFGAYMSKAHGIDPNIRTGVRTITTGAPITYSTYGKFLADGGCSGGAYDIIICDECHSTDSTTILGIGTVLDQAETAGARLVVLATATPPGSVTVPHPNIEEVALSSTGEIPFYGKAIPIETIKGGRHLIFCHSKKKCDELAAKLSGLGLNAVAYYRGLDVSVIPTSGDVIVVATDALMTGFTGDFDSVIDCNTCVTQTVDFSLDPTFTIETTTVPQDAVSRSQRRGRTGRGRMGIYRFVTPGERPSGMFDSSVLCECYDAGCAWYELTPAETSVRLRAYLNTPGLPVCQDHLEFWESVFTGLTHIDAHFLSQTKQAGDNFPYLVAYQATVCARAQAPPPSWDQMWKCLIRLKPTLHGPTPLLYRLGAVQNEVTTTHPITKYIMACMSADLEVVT
Summary of the method: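 Molecular beacon helicase assay with His-tagged recombinant NS3 and a Cy5/IBRQ-labelled partially duplex DNA substrate (25 bp) or Tye665-labelled RNA substrate (19 bp). Reactions started with 1 mM ATP. Screening read fluorescence before and 30 min after ATP (ex 643/em 670 nm). For IC50, 5% v/v DMSO was present, initial velocities came from first-order decay fits, and a Hill equation was applied.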

[2] = target: T2, E. coli SSB-Cy5-dT15 complex (Escherichia coli, UniProt P0AGE0); assay: Escherichia coli SSB Cy5-dT15 binding assay (fluorescence polarization); settings: for IC50: disruption of Cy5-dT15-SSB complex, read-out: Cy5-dT15-SSB Binding IC50; for inhibition at 100 µM: read-out: SSB % Displaced @ 100 μM; for EC50: read-out: SSB EC50
T2 construct: purchased Promega
T2 sequence (P0AGE0 2-178, one chain of several): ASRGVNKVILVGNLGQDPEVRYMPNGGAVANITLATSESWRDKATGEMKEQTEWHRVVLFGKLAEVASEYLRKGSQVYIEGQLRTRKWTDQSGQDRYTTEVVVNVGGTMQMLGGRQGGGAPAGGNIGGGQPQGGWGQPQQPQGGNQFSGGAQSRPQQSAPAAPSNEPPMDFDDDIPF
Summary of the method: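 Fluorescence polarization with 5 nM Cy5-dT15 and 20 nM E. coli SSB in 25 mM MOPS pH 7.5, 1.25 mM MgCl2, BSA, Tween 20, DTT. Screening at 1% DMSO; IC50 runs at 5% DMSO. Excitation 635 nm, parallel and perpendicular emission at 667 nm.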

[3] = genotype 1b (con1), read-out: Target Potency MBHA (IC50 avg., μM) 1b (con1)
[4] = standard HCV helicase MBHA (Table 9), read-out: DNA Unwinding IC50

Structure (SMILES) | Cell Viability (% @ 10 μM) (Huh-7.5 cells) | Cell viability (% viable) (Huh-7.5 cells; 10 μM compound, triplicate, average ± SD) | DNA binding (%) (MBHA DNA substrate; SYBR Green I-FID, average (±SD) percent bound at 100 μM) | FID (SG) % Displaced @ 100 μM (MBHA DNA substrate) | EC50 (MBHA DNA substrate) | IC50 ([1]; MBHA, DNA unwinding, mean ± SD of three titrations, read-out: Helicase IC50) | IC50 [1, 3] | IC50 [1, 4] | IC50 [2] | inhibition at 100 µM [2] | EC50 [2]
Cc1ccc2nc(-c3ccc4nc(-c5ccc(NC(=O)c6ccc7nc(-c8ccc(NC(=O)OCC9c%10ccccc%10-c%10ccccc%109)cc8)sc7c6)cc5)sc4c3)sc2c1S(=O)(=O)O.N [Compound 36] | 95 ± 3% and 90 ± 4% | 90 ± 4% | 67 ± 5% | 67 ± 5% | 22 µM | 4 ± 2.4 µM | 4 ± 2.4 µM | 4 ± 2 µM | 5 ± 1 µM | 95% | 5 µM
Cc1ccc2nc(-c3ccc(NC(=O)c4ccc(NC(=O)c5ccccc5)cc4)cc3)sc2c1S(=O)(=O)O.N [Compound 40] | 115 ± 3% |  |  | 18 ± 2% | > 100 µM |  | 81.4 ± 22 µM | 81 ± 22 µM | 57 ± 13 µM | 84% | 57 µM
Cc1ccc2nc(-c3ccc4nc(-c5ccc(NC(=O)c6ccc(CNC(=O)OCC7c8ccccc8-c8ccccc87)cc6)cc5)sc4c3)sc2c1S(=O)(=O)O.N [Compound 41] | 102 ± 6% |  |  | 53 ± 25% | 56 µM |  | 4.4 ± 0.3 µM | 4 µM | 57 ± 16 µM | 59% | 57 µM
Cc1ccc2nc(-c3ccc(NC(=O)c4ccc(NC(=O)OCC5c6ccccc6-c6ccccc65)cc4)cc3)sc2c1S(=O)(=O)O.N [Compound 42] | 108 ± 2% |  |  | 44 ± 2% | > 100 µM |  | 12 ± 3.7 µM | 12 ± 4 µM | 27 ± 5 µM | 93% | 27 µM
Cc1ccc2nc(-c3ccc(NC(=O)c4ccc(NC(=S)Nc5ccccc5)cc4)cc3)sc2c1S(=O)(=O)O.N [Compound 43] | 106 ± 3% |  |  | 37 ± 4% | > 100 µM |  | 29 ± 6.9 µM | 29 ± 7 µM | 23 ± 5 µM | 93% | 23 µM
Cc1ccc2nc(-c3ccc(NC(=O)c4ccc(NC(=O)c5ccc(C(F)(F)F)cc5)cc4)cc3)sc2c1S(=O)(=O)O.N [Compound 44] | 97 ± 7% |  |  | 41 ± 2% | > 100 µM |  | 10.4 ± 1.9 µM | 10 ± 2 µM | 23 ± 6 µM | 86% | 23 µM
Cc1ccc2nc(-c3ccc(NC(=O)c4ccc(NC(=O)Nc5ccccc5)cc4)cc3)sc2c1S(=O)(=O)O.N [Compound 45] | 113 ± 4% |  |  | 17 ± 2% | > 100 µM |  | 44 ± 12 µM | 44 ± 12 µM | 20 ± 4 µM | 96% | 20 µM
Cc1ccc2nc(-c3ccc(NC(=O)c4ccc(NC(=O)c5ccc(N)cc5)cc4)cc3)sc2c1S(=O)(=O)O.N [Compound 46] | 112 ± 5% |  |  | 21% | > 100 µM |  | 30 ± 3.8 µM | 29 ± 4 µM | 17 ± 5 µM | 94% | 17 µM
Cc1ccc2nc(-c3ccc4nc(-c5ccc(NC(=O)Nc6ccc(C(F)(F)F)cc6)cc5)sc4c3)sc2c1S(=O)(=O)O.N [Compound 47] | 99 ± 7% |  |  | 84 ± 22% | 18 µM |  | 5.1 ± 3.3 µM | 5 ± 3 µM | 15 ± 3 µM | 91% | 15 µM
Cc1ccc2nc(-c3ccc4nc(-c5ccc(NC(=O)Nc6ccc(F)cc6)cc5)sc4c3)sc2c1S(=O)(=O)O.N [Compound 48] | 93 ± 2% |  |  | 58 ± 3% | 74 µM |  | 7.8 ± 2.2 µM | 8 ± 2 µM | 11 ± 2 µM | 100% | 11 µM
Cc1ccc2nc(-c3ccc4nc(-c5ccc(NC(=O)c6cccc7ccccc67)cc5)sc4c3)sc2c1S(=O)(=O)O.N [Compound 49] | 103 ± 5% |  |  | 80 ± 3% | 30 µM |  | 4.5 ± 0.4 µM | 5 µM | 9 ± 2 µM | 94% | 9 µM
Cc1ccc2nc(-c3ccc4nc(-c5ccc(NC(=S)Nc6ccccc6)cc5)sc4c3)sc2c1S(=O)(=O)O.N [Compound 50] | 98 ± 10% |  |  | 76 ± 9% | 30 µM |  | 9.3 ± 3.8 µM | 9 ± 4 µM | 7 ± 1 µM | 98% | 7 µM
Cc1ccc2nc(-c3ccc(NC(=O)c4ccc(NC(=O)c5ccc(NC(=O)OCC6c7ccccc7-c7ccccc76)cc5)cc4)cc3)sc2c1S(=O)(=O)O.N [Compound 51] | 113 ± 5% |  |  | 22% | > 100 µM |  | 2.5 ± 0.5 µM | 3 µM | 7 ± 3 µM |  | 7 µM
Cc1ccc2nc(-c3ccc4nc(-c5ccc(NC(=O)Nc6ccccc6)cc5)sc4c3)sc2c1S(=O)(=O)O.N [Compound 52] | 108 ± 4% |  |  | 46 ± 2% | > 100 µM |  | 4.1 ± 1.3 µM | 4 ± 1 µM | 6 ± 1 µM | 95% | 6 µM
Cc1ccc2nc(-c3ccc4nc(-c5ccc(NCc6ccccc6)cc5)sc4c3)sc2c1S(=O)(=O)O [Compound 53] | 109 ± 8% |  |  | 92 ± 4% | 27 µM |  | 11 ± 1.6 µM | 11 ± 2 µM | 5 ± 1 µM | 102% | 5 µM
Cc1ccc2nc(-c3ccc4nc(-c5ccc(NC(=O)Nc6ccc(Cl)cc6)cc5)sc4c3)sc2c1S(=O)(=O)O [Compound 54] | 98 ± 1% |  |  | 74 ± 4% | 8 µM |  | 3.6 ± 0.9 µM | 4 ± 1 µM | 5 ± 1 µM | 94% | 5 µM
COc1ccc(NC(=O)Nc2ccc(-c3nc4ccc(-c5nc6ccc(C)c(S(=O)(=O)O)c6s5)cc4s3)cc2)cc1 [Compound 55] | 99 ± 9% |  |  | 55 ± 6% | 73 µM |  | 4.8 ± 2 µM | 5 ± 2 µM | 4 ± 1 µM | 95% | 4 µM
